Experimental data published in patent US20240174675A1, “SMALL MOLECULE REGULATORS OF ALVEOLAR TYPE 2 CELL PROLIFERATION FOR THE TREATMENT OF PULMONARY DISEASES” (THE SCRIPPS RESEARCH INSTITUTE, priority 2021, published 2024).
Entries after “also recorded” stand apart in the source; their conditions may differ.

Columns and labels:
AEC2s = assay: Single cell RNA-sequencing from the lungs of mice (proliferating cell types); format: in vivo; settings: mouse lung, 0.5 mg/kg IT; for cell types proliferative in response to treatment: animals sacrificed 2 and 4 days after dosing (FIG. 5)
Protocol: Single cell RNA-sequencing from the lungs of mice was performed to understand which cell types are proliferative in response to compound 46 treatment.

[1] = Pharmacokinetic profiling, plasma and lung levels after intratracheal or inhalation delivery in the mouse; format: in vivo; settings: for Kp: read-out: AUC ratio; for AUC(0-t): read-out: AUC0-24; for MRT inf: read-out: MRT0-inf
[2] = Pharmacokinetic profiling, plasma and lung levels after intratracheal delivery in the rat; format: in vivo; settings: Male, Sprague Dawley strain, 2 mg/kg, 1 mg/ml in PBS; for MRT inf: read-out: MRT0-inf
Protocol: To assess the time course of the plasma and lung exposure of compounds disclosed herein, rodents were dosed IT with an exemplary compound of the present disclosure. The plasma and lung samples were taken at different time points. The drug levels were measured by LCMS.

[3] = tested on: bleomycin induced lung fibrosis in mice; assay: Bleomycin induced lung fibrosis model; format: in vivo, C57BL/6J mice; settings: for efficacy in combination with Nintedanib: Compound 46 0.5 mg/kg IT, E4D, Bliss independence, BALF protein content and Ashcroft scoring (FIG. 4)
Protocol: Bleomycin (Hospira) was used to induce lung fibrosis in mice. Body weight matched (24 gram˜28 gram) male C57BL/6J mice at 10-12 weeks of age were selected to use in bleomycin model.
(§1) For oral delivery, DPP4 inhibitors were dissolved in PBS resulting in clear solution. Vehicle control or DPP4 inhibitors were dosed at 10 ml/kg through oral gavage once or twice a day selected based on PK profile. For intratracheally delivered DPP4 inhibitors, compounds were dissolved in PBS resulting in clear solution. Vehicle control or DPP4 inhibitors were dosed at 2 ml/kg through a 22 g flexible catheter every four days.
0.5 U/kg Bleomycin or PBS in sham group was intratracheally injected into mice lung at day 0. DPP4 inhibitors or vehicle control were given to mice starting from one day before bleomycin injection (day −1).
All animals were sacrificed at day 20 after bleomycin injection. Bronchoalveolar lavage fluid (BALF) was retrieved using standard method. 1 ml 4% formalin was used to inflate the lung, which was subsequently fixed in 4% formalin for 24 hours and preserved in […] until histological process.
For readouts, body weight was measured every day; total protein content in BALF was quantified using BCA assay; pulmonary fibrosis was assessed using Masson's trichrome staining.

[4] = tested on: LPS induced acute lung injury in mice; assay: LPS-induced acute lung injury (ALI) model; format: in vivo, C57BL/6J mice; settings: mouse ALI model; every other day via intratracheal administration
Protocol: LPS from E. coli […] (Sigma) was used to induce acute lung injury in mice. Body weight matched (19 gram-22 gram) female C57BL/6J mice at 9-11 weeks of age were selected to use in ALI model.
as §1, with “other day.” for “four days.”
LPS (1.5 mg/kg for testing orally delivered DPP4 inhibitors and 1.2 mg/kg for testing intratracheally delivered DPP4 inhibitors) or PBS in sham group was intratracheally injection into mice lung at day 0. DPP4 inhibitors or vehicle control were given to mice starting from one day before LPS injection (day −1).
All animals were sacrificed at day 3.5 after LPS injection. Bronchoalveolar lavage fluid (BALF) was retrieved using standard method. 1 ml 4% formalin was used to inflate the lung, which was subsequently fixed in 4% formalin for 24 hours and preserved in 70% EtOH until histological process.
For readouts, total protein content in BALF was quantified using BCA assay; pulmonary inflammation and damage were assessed using H & E staining.

Human DPP4 = target: T1, Human DPP4 (Homo sapiens, UniProt P27487); assay: DPP4 activity assay (DPP4 Activity Assay Kit, fluorescent substrate); format: biochemical; settings: Human DPP4; read-out: DPP4 inhibition IC50 [nM])
T1 construct: purchased Sigma-Aldrich MAK088
Outline: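 Human DPP4 activity measured with a commercial kit: test compound in assay buffer mixed with a fluorogenic substrate cleaved by the enzyme. Fluorescence read every 1 minute over 20 minutes.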

[5] = Mouse, Male, CD-1 strain, Intratracheal, 2 mg/kg, 1 mg/ml in PBS, Lung
[6] = Mouse, Male, CD-1 strain, Intratracheal, 2 mg/kg, 1 mg/ml in PBS, Plasma
[7] = inhaled or intranasal, Mouse, Male, CD-1 strain, Inhalation, 10 mg/ml in PBS for 15 mins, Lung
[8] = inhaled or intranasal, Mouse, Male, CD-1 strain, Inhalation, 10 mg/ml in PBS for 15 mins, Plasma
[9] = inhaled or intranasal, Mouse, Male, CD-1 strain, Intratracheal, 2 mg/kg, 1 mg/ml in PBS, Lung
[10] = inhaled or intranasal, Mouse, Male, CD-1 strain, Intratracheal, 2 mg/kg, 1 mg/ml in PBS, Plasma
[11] = mouse, IT dosing at 2 mg/kg (FIG. 2)

T1 sequence (P27487 whole entry): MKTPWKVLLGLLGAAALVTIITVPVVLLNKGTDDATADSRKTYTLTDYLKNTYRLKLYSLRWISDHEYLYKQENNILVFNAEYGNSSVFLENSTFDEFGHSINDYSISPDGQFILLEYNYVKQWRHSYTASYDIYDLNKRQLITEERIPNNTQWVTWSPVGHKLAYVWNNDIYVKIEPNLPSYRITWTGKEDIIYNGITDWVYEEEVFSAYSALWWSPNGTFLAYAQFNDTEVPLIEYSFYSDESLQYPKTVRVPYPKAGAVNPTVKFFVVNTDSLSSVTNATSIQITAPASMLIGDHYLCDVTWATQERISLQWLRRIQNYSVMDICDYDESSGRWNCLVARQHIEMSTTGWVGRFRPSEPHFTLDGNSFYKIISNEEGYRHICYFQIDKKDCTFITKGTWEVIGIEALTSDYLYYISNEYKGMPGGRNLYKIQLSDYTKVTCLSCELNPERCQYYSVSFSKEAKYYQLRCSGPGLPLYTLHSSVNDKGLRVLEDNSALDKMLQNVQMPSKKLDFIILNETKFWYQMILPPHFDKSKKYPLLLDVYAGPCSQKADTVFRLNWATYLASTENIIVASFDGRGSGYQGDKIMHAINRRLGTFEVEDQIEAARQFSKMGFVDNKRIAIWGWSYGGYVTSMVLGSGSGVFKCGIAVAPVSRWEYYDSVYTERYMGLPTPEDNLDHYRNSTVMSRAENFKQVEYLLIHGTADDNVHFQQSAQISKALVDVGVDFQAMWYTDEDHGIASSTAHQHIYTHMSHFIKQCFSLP

In the case of `CCCCCCN(Cc1cn(CCOCCOCCOC(=O)c2nc(C(F)(F)F)n3c2CN(C(=O)C[C@H](N)Cc2cc(F)c(F)cc2F)CC3)nn1)C[C@H](O)[C@@H](O)[C@H](O)[C@H](O)CO` [Compound 46, 2-(2-(2-(4-((hexyl(2,3,4,5,6-pentahydroxyhexyl)amino)methyl)-1H-1,2,3-triazol-1-yl)ethoxy)ethoxy)ethyl 7-((R)-3-amino-4-(2,4,5-trifluorophenyl)butanoyl)-3-(trifluoromethyl)-5,6,7,8-tetrahydroimidazo[1,5-a]pyrazine-1-carboxylate], the “accumulation of AEC2s after treatment” value (AEC2s; 2 and 4 days after dosing) is reported as “time-dependent accumulation of AEC2s”, the “cell types proliferative in response to treatment” value (AEC2s; listed as Compound 46, 0.5 mg/kg) is reported as “selectively expanded AEC2s” and the “cell types proliferative in response to treatment” value (AEC2s; listed as compound 46, 0.5 mg/kg) is reported as “only cycling and transitional AEC2s were induced to proliferate”. For the same compound, the AUC0-inf ([1]; Mouse, Male, CD-1 strain, Inhalation, 10 mg/ml in PBS for 15 mins, Lung) was 509,951 ng · h/g, the AUC ratio ([1]; Mouse, Male, CD-1 strain, Inhalation, 10 mg/ml in PBS for 15 mins, Plasma) was 1 and the AUC0-24 [1, 5] was 258,902 ng · h/g. The AUC0-inf [1, 5] was 1,082,408 ng · h/g, the Tmax [1, 5] was 0.25 h and the Kp [1, 5] was 1350. For the same compound, the AUC ratio [1, 6] was 1, the AUC(0-t) [1, 6] was 728 ng·h/mL and the AUC0-inf ([1]; Mouse, Male, CD-1 strain, Intratracheal, 2 mg/kg, 1 mg/ml in PBS, Plasma, read-out: AUC0-inf) was 729 ng·h/mL. It also gave an MRT inf [1, 6] of 1.88 h, a Cmax [1, 7] of 20900 ng/g and a Tmax [1, 7] of 0.25 h. The Kp [1, 7] was 9240, the Cmax [1, 8] was 35.9 ng/mL and the Tmax [1, 8] was 0.5 h. It also gave a half-life [1, 8] of 1.5 h, an AUC(0-t) [1, 8] of 53.4 ng·h/mL and an AUC0-inf ([1]; inhaled or intranasal, Mouse, Male, CD-1 strain, Inhalation, 10 mg/ml in PBS for 15 mins, Plasma, read-out: AUC0-inf) of 55.2 ng·h/mL. The MRT inf [1, 8] was 1.69 h, the Cmax [1, 9] was 24600 ng/g and the half-life [1, 9] was 54.1 h. The MRT inf [1, 9] was 80.6 h, the Cmax [1, 10] was 435 ng/mL and the Tmax [1, 10] was 0.25 h. For the same compound, the half-life [1, 10] was 1.28 h, the “plasma and lung exposure profiles compared to retagliptin” value [1, 11] was “significantly higher plasma and lung exposure profiles compared to retagliptin” and the “time retained in the lung” value [1, 11] was 7 days. It also gave an AUC0-24 ([2]; Lung) of 658004 ng·h/g, an AUC0-inf ([2]; Lung) of 4738852 ng·h/g and an AUC ratio ([2]; Plasma) of 1. For the same compound, the Cmax ([2]; inhaled or intranasal, Lung) was 41400 ng/g, the Tmax ([2]; inhaled or intranasal, Lung) was 0.25 h and the half-life ([2]; inhaled or intranasal, Lung) was 119 h. The Kp ([2]; inhaled or intranasal, Lung, read-out: AUC ratio) was 145, the MRT inf ([2]; inhaled or intranasal, Lung) was 186 h and the Cmax ([2]; inhaled or intranasal, Plasma) was 14700 ng/mL. It also gave a Tmax ([2]; inhaled or intranasal, Plasma) of 0.25 h, a half-life ([2]; inhaled or intranasal, Plasma) of 68.8 h and an AUC(0-t) ([2]; inhaled or intranasal, Plasma, read-out: AUC0-24) of 18000 ng·h/mL. For the same compound, the AUC0-inf ([2]; inhaled or intranasal, Plasma, read-out: AUC0-inf) was 18600 ng·h/mL, the MRT inf ([2]; inhaled or intranasal, Plasma) was 6 h and the “efficacy in combination with Nintedanib” value ([3]; bleomycin model, listed as Compound 46, 0.5 mg/kg) was “synergistic efficacy”. For the same compound, the “efficacy in combination with Nintedanib” value ([3]; bleomycin model, listed as compound 46, 0.5 mg/kg) was “impressive and synergistic efficacy”, the minimal efficacious dose ([3]; bleomycin model, every four-day intratracheal dosing regime) was 0.5 mg/kg and the “efficacy in the bleomycin induced pulmonary fibrosis model” value ([3]; mouse, intratracheally 0.5 mg/kg every four days, body weight, BALF protein, fibrotic area, modified Ashcroft scores (FIG. 3)) was “displayed efficacy; also recorded: rescue of key metrics including body weight, BALF protein content, fibrotic area, and histological scoring”. It also gave a minimal efficacious dose [4] of 0.02 mg/kg and an IC50 (Human DPP4) of 0.15 nM.
